Measurements reported in patent US12465614B2, “Budesonide 21-phosphate salts and pharmaceutical compositions containing the same” (GENETIC S.P.A., priority 2020, dated 2025).
“Also recorded” adds a separate entry of the source.

Legend:
Format in all cases: in vivo
OVA-sensitized mice = assay: Bronchial relaxation to salbutamol, isolated bronchi of OVA-sensitized mice (Experimental Groups I); details: 1 mg/Kg i.p.; rings precontracted with carbachol; vs OVA group; FIG. 10B
IgE = assay: Plasma IgE levels in OVA-sensitized mice, ELISA (Experimental Groups I); details: 1 mg/Kg i.p.; vs OVA group; FIG. 10 panel C
Method: Female Balb/c (8-week-old, Charles River, Calco, Italy) were housed in the animal care facility of the Department of Pharmacy of the University of Naples, Italy in a controlled environment (temperature 21±2° C. and humidity 60±10%) and provided with standard rodent chow and water. All animals were allowed to acclimate for four days prior to experiments and were subjected to 12 h light−12 h dark schedule. Experiments were conducted during the light phase. The experimental procedures were approved by the Italian Ministry according to International and National law and policies (EU Directive 2010/63/EU and Italian DL 26/2014 for animal experiments). […] The compounds were dissolved in DMSO (Sigma Chemical Co., St. Louis, MO) at concentrations at which the determined dose per animal results from the intraperitoneal administration of 100 μl of solution (1:10 DMSO) and intra-nasal (i.n.) administration of 10 μl/animal (5 μl/nostril) of the solutions. […] Plasma levels of IgE were measured as index of sensitization. […] Total IgE levels were measured by means of ELISA using matched antibody pairs (BD Biosciences Pharmingen San Jose, CA).

[1] = test system: mice with OVA-induced allergic asthma; assay: Lung hyperreactivity/Penh function, whole body plethysmography, intra-nasal FB, F, B (Experimental Groups II); details: i.n. daily 2 weeks, all tested doses: FB 0.3, 1.0, 3.0 nmol/animal, vs untreated OVA group
[2] = test system: mice with OVA-induced allergic asthma; assay: Circulating leukocyte cell counts (Experimental Groups II); details: i.n.; FB all tested doses (0.3, 1.0, 3.0 nmol/animal); B and F 3 nmol/animal
Method: Male Balb/c SPF mice (25*2 g, 6-week-old) were purchased from the animal house facilities at the São Paulo School of Medicine (Federal University of São Paulo, Brazil). They were group-housed in a temperature-controlled room at 22° C. with a 12/12-hour light/dark cycle and allowed free access to food and water. The study is in agreement with the Ethical Principles for Animal Research established by the Brazilian College for Animal Experimentation (COBEA). According to the internal laboratory rules, euthanasia is performed if severe distress related to the test agents developed during the experiment. […] The compounds were dissolved in DMSO (Sigma Chemical Co., St. Louis, MO) at concentrations at which the determined dose per animal results from the intraperitoneal administration of 100 μl of solution (1:10 DMSO) and intra-nasal (i.n.) administration of 10 μl/animal (5 μl/nostril) of the solutions. Mice were sensitized with two subcutaneous injections of 0.4 ml of OVA/Al(OH)3, with an interval of 7 days (Sham animals received the Al(OH)3 suspension in PBS with no OVA). Seven days after the second sensitization (i.e., 3rd week), the animals were nebulized twice a week with the 1% OVA solution (Sham and untreated OVA groups were nebulized with PBS) during 20 minutes for the next 2 weeks. Sixty minutes before the challenges (OVA nebulization) and daily during the next 4 weeks, mice were intra-nasally treated (10 μl/animal as 5 μl/nostril) with the respective compounds/vehicle. After Penh evaluation, the mice were anesthetized with inhaled isofluorane (5% v/v in O2) and blood samples were collected from the descending abdominal aorta. The mice were then euthanized by exsanguination (blood samples were collected from each animal for leukocyte cell counting), and bronchoalveolar lavage (BAL) was performed by exposing and cannulating the trachea with a polyethylene tube (1 mm outer diameter) connected to a syringe. The lungs were washed by flushing 300 μL of heparin-containing PBS solution (20 Ul/mL). The retrieved BAL lavage aliquots were obtained, and the same procedure was repeated four additional times. The samples were submitted to centrifugation (1000 g for 10 min) and the cell pellet was resuspended in 200 μL of PBS solution. Total cell counts were determined using a Neubauer chamber, and differential counting was carried out in cytospin (Fanem Mod 2400; São Paulo, Brazil) preparations stained with May-Grünwald dye. Leukocytes were classified based on normal morphological criteria.

**Q.** How did the “bronchial relaxation to salbutamol” value (OVA-sensitized mice) turn out when CCCC1OC2CC3C4CCC5=CC(=O)C=CC5(C)C4C(O)CC3(C)C2(C(=O)COP(=O)(O)O)O1 (centres unmarked) [B, Budesonide 21-phosphate] was run?
**A.** did not ameliorate the lack of bronchial response to salbutamol

**Q.** What about the “OVA induced increase of IgE plasma levels” value (IgE) of the same compound?
**A.** significantly reduced OVA induced increase of IgE plasma levels

**Q.** And the “area under the Penh-metacholine concentration curve (AUC)” value ([1]; B 3.0 nmol/animal)?
**A.** showed no effect

**Q.** What about the “Penh maximal response Emax to inhaled metacholine” value ([1]; F and B 3.0 nmol/animal) of the same compound?
**A.** showed no effect

**Q.** What about the circulating macrophages [2] of the same compound?
**A.** significantly reduced the number of macrophages; also recorded: mild decrease of circulating macrophages
